Values quoted from earlier work as cited in patent publication US7977452B2, “Janus dendrimers and dendrons” (Dendritic Nanotechnologies, Inc., priority 2005, dated 2011).

Tests used:
Mouse [1] = test system: Mouse
Mouse [2] = test system: Mouse; remark: listed apart in the source
[3] = in vivo
[4] = Gd-chelate PAMAM dendrimer contrast agent

Row | Structure (SMILES) | Effective dose (ED) (Mouse [1]) [mmol·kg] | LD50 (Mouse [2]) [mmol·kg] | Excretion [3] | Size [4] [nm]
1 | O=C([O-])CN1CCNCCN(CC(=O)[O-])CCN(CC(=O)[O-])CC1.[Gd+3] [Gd(III)-DO3A] | 0.1 | 7 | – | –
2 | O=C(O)CN(CCN(CC(=O)O)CC(=O)O)CCN(CC(=O)O)CC(=O)O [DTPA, diethylenetriaminepentaacetic acid] | – | – | Kidney | –
3 | CNC[C@H](O)[C@@H](O)[C@H](O)[C@H](O)CO.CNC[C@H](O)[C@@H](O)[C@H](O)[C@H](O)CO.O=C([O-])CN(CCN(CC(=O)[O-])CC(=O)O)CCN(CC(=O)[O-])CC(=O)O.[Gd+3] [(NMG)2-Gd-DTPA] | 0.1 | 8.2 | – | –
4 | CNC(=O)CN(CCN(CCN(CC(=O)[O-])CC(=O)NC)CC(=O)[O-])CC(=O)[O-].[Gd+3] [Gd-DTPA-BMA] | 0.1 | 34.4 | – | –
5 | O=C(O)CN(CCN(CC(=O)O)CC(=O)O)CCN(CC(=O)O)CC(=O)O (Gd complex, metal not drawn) [DTPA, diethylenetriaminepentaacetic acid] | – | – | – | >1
6 | CNC[C@H](O)[C@@H](O)[C@H](O)[C@H](O)CO.O=C([O-])CN1CCN(CC(=O)[O-])CCN(CC(=O)O)CCN(CC(=O)[O-])CC1.[Gd+3] [NMG-Gd-DOTA] | 0.1 | 11.2 | – | –
7 | CC(O)CN1CCN(CC(=O)[O-])CCN(CC(=O)[O-])CCN(CC(=O)[O-])CC1.[Gd+3] (stereo not drawn) [Gd-HP-DO3A] | 0.1 | 12.0 | – | –
